Laboratory results: ChEMBL document CHEMBL1201862, “PubChem BioAssay data set” (2004)
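These data come from cells grown in 96-well plates and exposed to compound for 48 hours at five concentrations. Abbreviation: GI50, concentration required for 50% inhibition of growth.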 The source made the active and inactive calls. Rule as the data show it: active = GI50 up to about 1.1 µM and inactive = higher.

Key:
Assay in all cases: inhibition of tumour cell growth, NCI panel, 48 h
786-0 = system: 786-0
HCT-116 = system: HCT-116
CCRF-CEM = system: CCRF-CEM
SF-268 = system: SF-268
IGROV-1 = system: IGROV-1
A549 = system: A549
HL-60 = system: HL-60
OVCAR-4 = system: OVCAR-4
ACHN = system: ACHN
SN12C = system: SN12C
TK-10 = system: TK-10
SF-295 = system: SF-295
SK-OV-3 = system: SK-OV-3
SNB-19 = system: SNB-19
OVCAR-3 = system: OVCAR-3
SR = system: SR

Measured: GI50

Cc1ccnc(NS(=O)(=O)c2ccc(NC3=CC(=O)C(=O)c4ccccc43)cc2)n1
inactive: 786-0 > 100 µM | HCT-116 > 100 µM | CCRF-CEM > 100 µM | SF-268 > 100 µM | IGROV-1 > 100 µM | A549 > 100 µM | HL-60 > 100 µM | OVCAR-4 > 100 µM | ACHN > 100 µM | SN12C > 100 µM | TK-10 > 100 µM | SF-295 > 100 µM | SK-OV-3 > 100 µM | SNB-19 > 100 µM | OVCAR-3 > 100 µM | SR > 100 µM

CC(C)CCC[C@@H](C)C1CCC2[C@@H]3CC=C4C[C@@H](C(=O)NCCN(C)C)CC[C@]4(C)C3CC[C@@]21C (some centres undefined)
inactive: 786-0 17.3 µM | CCRF-CEM 23.8 µM | SF-268 36 µM | IGROV-1 31.1 µM | A549 23.1 µM | HL-60 45.8 µM | OVCAR-4 30.4 µM | ACHN 35.8 µM | SN12C 19.4 µM | TK-10 23.7 µM | SF-295 44.4 µM | SK-OV-3 > 100 µM | SNB-19 28.6 µM | OVCAR-3 31.4 µM

O=c1c(O)cccn1C1OC(CO)C(O)C1O (centres undefined)
inactive: 786-0 > 100 µM | HCT-116 > 100 µM | CCRF-CEM > 100 µM | SF-268 > 100 µM | IGROV-1 > 100 µM | A549 > 100 µM | OVCAR-4 > 100 µM | ACHN > 100 µM | SN12C > 100 µM | TK-10 > 100 µM | SK-OV-3 > 100 µM | SNB-19 > 100 µM

N#C/C(c1nc2ccccc2[nH]1)=c1\s/c(=C/c2ccccc2)c(=O)n1-c1ccccc1
inactive: 786-0 > 100 µM | HCT-116 > 100 µM | CCRF-CEM 98.9 µM | SF-268 > 100 µM | IGROV-1 2.9 µM | A549 > 100 µM | HL-60 > 100 µM | OVCAR-4 > 100 µM | ACHN > 100 µM | SN12C > 100 µM | TK-10 > 100 µM | SK-OV-3 > 100 µM | SNB-19 > 100 µM | OVCAR-3 > 100 µM | SR > 100 µM

C[Si](C)(C)OC1(C#N)C2C3CC4C2C(=O)C2C4C3C21 (centres undefined)
inactive: 786-0 > 100 µM | HCT-116 > 100 µM | CCRF-CEM > 100 µM | SF-268 > 100 µM | IGROV-1 > 100 µM | A549 > 100 µM | HL-60 > 100 µM | OVCAR-4 > 100 µM | ACHN > 100 µM | SN12C > 100 µM | TK-10 > 100 µM | SK-OV-3 > 100 µM | SNB-19 > 100 µM | OVCAR-3 > 100 µM | SR > 100 µM

Cn1cnc([N+](=O)[O-])c1Sc1nccn1-c1ccccc1
inactive: 786-0 > 100 µM | HCT-116 38 µM | CCRF-CEM 36.3 µM | SF-268 66.5 µM | IGROV-1 43.1 µM | A549 > 100 µM | OVCAR-4 44.6 µM | ACHN 47.6 µM | SN12C 42.3 µM | TK-10 > 100 µM | SF-295 > 100 µM | SK-OV-3 > 100 µM | SNB-19 > 100 µM | OVCAR-3 50.5 µM | SR 21.2 µM

CC(=O)Oc1cc(C)c2c(c1OC(C)=O)CC1(O2)[C@@H](C)CCC2[C@@]3(C)CC[C@H](OC(C)=O)C(C)(C)C3CC[C@]21C (some centres undefined)
inactive: 786-0 2.28 µM | HCT-116 4.19 µM | SF-268 3.37 µM | IGROV-1 2.01 µM | A549 5.3 µM | OVCAR-4 > 10 µM | ACHN 1.67 µM | SN12C 2.98 µM | TK-10 3.61 µM | SF-295 5.01 µM | SK-OV-3 5.36 µM | SNB-19 7.31 µM | OVCAR-3 2.72 µM | SR 3.03 µM

CCC(C)(C)NS(=O)(=O)c1ccccc1
inactive: 786-0 > 100 µM | HCT-116 > 100 µM | CCRF-CEM > 100 µM | IGROV-1 > 100 µM | A549 > 100 µM | HL-60 > 100 µM | OVCAR-4 > 100 µM | ACHN > 100 µM | TK-10 > 100 µM | SF-295 > 100 µM | SK-OV-3 > 100 µM | OVCAR-3 > 100 µM

COc1ccc(NC(=O)C(=O)C2NC(=S)NC2=O)c(OC)c1 (centres undefined)
inactive: 786-0 > 100 µM | HCT-116 > 100 µM | CCRF-CEM > 10 µM | SF-268 > 100 µM | IGROV-1 > 100 µM | A549 > 100 µM | HL-60 > 100 µM | OVCAR-4 > 100 µM | ACHN > 100 µM | SN12C > 100 µM | TK-10 > 100 µM | SF-295 > 100 µM | SK-OV-3 > 100 µM | SNB-19 > 100 µM | OVCAR-3 > 100 µM

O=[N+]([O-])c1ccc(OCCNc2cccc3ccccc23)cc1
inactive: 786-0 > 100 µM | HCT-116 42.8 µM | CCRF-CEM 38.2 µM | SF-268 > 100 µM | IGROV-1 > 100 µM | A549 60.1 µM | OVCAR-4 > 100 µM | ACHN > 100 µM | SN12C > 100 µM | TK-10 > 100 µM | SF-295 > 100 µM | SK-OV-3 > 100 µM | SNB-19 > 100 µM | OVCAR-3 > 100 µM

CN(C)C(=S)/N=c1\ss/c(=N/c2ccccc2)n1C
inactive: 786-0 22.6 µM | HCT-116 38.5 µM | CCRF-CEM > 100 µM | SF-268 27.2 µM | IGROV-1 > 100 µM | A549 59.2 µM | HL-60 > 100 µM | OVCAR-4 50.6 µM | ACHN > 100 µM | SN12C > 100 µM | TK-10 > 100 µM | SF-295 75.9 µM | SK-OV-3 32.4 µM | SNB-19 58.3 µM | SR > 100 µM

CCOc1ccc(/C=C(\Cl)c2ccc(OC)cc2)cc1
inactive: 786-0 > 100 µM | HCT-116 > 100 µM | CCRF-CEM > 100 µM | SF-268 > 100 µM | IGROV-1 > 100 µM | A549 > 100 µM | HL-60 47.6 µM | OVCAR-4 > 100 µM | ACHN > 100 µM | SN12C > 100 µM | SF-295 > 100 µM | SK-OV-3 > 100 µM | SNB-19 > 100 µM | SR > 100 µM

CC(=O)OC1CC2C(C)(C)C(=O)C=C[C@]2(C)C2CCC3(C)C(c4ccoc4)C(=O)[C@H]4O[C@]43[C@]12C (some centres undefined)
inactive: 786-0 18.1 µM | HCT-116 15.4 µM | CCRF-CEM 15.5 µM | SF-268 38.9 µM | IGROV-1 25.5 µM | A549 > 10 µM | HL-60 20.2 µM | OVCAR-4 22.3 µM | ACHN 17.9 µM | SN12C 23.3 µM | TK-10 31.6 µM | SK-OV-3 > 100 µM | SNB-19 23.3 µM

O=C(CSc1nnc(Cc2ccccc2)o1)Nc1ccccc1Cl
inactive: 786-0 > 100 µM | HCT-116 > 100 µM | CCRF-CEM > 100 µM | SF-268 > 100 µM | IGROV-1 > 100 µM | A549 > 100 µM | HL-60 > 100 µM | OVCAR-4 > 100 µM | ACHN > 100 µM | SN12C > 100 µM | TK-10 > 100 µM | SF-295 > 100 µM | SK-OV-3 > 100 µM | SNB-19 > 100 µM | OVCAR-3 > 100 µM
